Assay results published in ChEMBL document CHEMBL1201862, “PubChem BioAssay data set” (2004).
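Dose response: 5 concentrations. Exposure: 48 h. Format: 96-well plates. Endpoint: linear interpolation; highest concentration if not reached. GI50 marks 50% less growth.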 Calls of active or inactive are those of the source. Rule as the data show it: active = GI50 up to about 1.1 µM and inactive = higher.

Assays:
Test in all cases: DTP human tumour cell line panel, 48 h
786-0 = system: 786-0
A498 = system: A498
A549 = system: A549
ACHN = system: ACHN
BT-549 = system: BT-549
CAKI-1 = system: CAKI-1
CCRF-CEM = system: CCRF-CEM
COLO 205 = system: COLO 205
DU-145 = system: DU-145
EKVX = system: EKVX
HCT-116 = system: HCT-116
HCT-15 = system: HCT-15
HL-60 = system: HL-60
HOP-62 = system: HOP-62
HOP-92 = system: HOP-92
HT-29 = system: HT-29
Hs-578T = system: Hs-578T
IGROV-1 = system: IGROV-1
K562 = system: K562
KM12 = system: KM12
LOX IMVI = system: LOX IMVI
M14 = system: M14
MCF7 = system: MCF7
MDA-MB-231 = system: MDA-MB-231
MDA-MB-435 = system: MDA-MB-435
MDA-N = system: MDA-N
MOLT-4 = system: MOLT-4
Malme-3M = system: Malme-3M
NCI-H226 = system: NCI-H226
NCI-H23 = system: NCI-H23
NCI-H460 = system: NCI-H460
NCI-H522 = system: NCI-H522
NCI/ADR-RES = system: NCI/ADR-RES
OVCAR-3 = system: OVCAR-3
OVCAR-4 = system: OVCAR-4
OVCAR-5 = system: OVCAR-5
OVCAR-8 = system: OVCAR-8
PC-3 = system: PC-3
RPMI-8226 = system: RPMI-8226
RXF 393 = system: RXF 393
SF-268 = system: SF-268
SF-295 = system: SF-295
SF-539 = system: SF-539
SK-MEL-28 = system: SK-MEL-28
SK-MEL-2 = system: SK-MEL-2
SK-MEL-5 = system: SK-MEL-5
SK-OV-3 = system: SK-OV-3
SN12C = system: SN12C
SNB-19 = system: SNB-19
SNB-75 = system: SNB-75
SR = system: SR
SW-620 = system: SW-620
T47D = system: T47D
TK-10 = system: TK-10
U-251 = system: U-251
UACC-257 = system: UACC-257
UACC-62 = system: UACC-62
UO-31 = system: UO-31
HCC 2998 = system: HCC 2998

Which GI50 (786-0) does the source give for `O=C(O)c1cccc(/N=N/c2c(S(=O)(=O)O)ccc3c2C(=O)c2ccccc2C3=O)c1O` here?
Its GI50 is > 100 µM (inactive).

What about the GI50 (A498) of the same molecule?
The GI50 was > 100 µM (inactive).

And the GI50 (A549)?
Its GI50 is > 100 µM (inactive).

What about the GI50 (ACHN) of the same molecule?
The GI50 was > 100 µM (inactive).

And the GI50 (BT-549)?
Its GI50 is > 100 µM (inactive).

And the GI50 (CAKI-1)?
The GI50 was > 100 µM (inactive).

And the GI50 (CCRF-CEM)?
The GI50 was > 100 µM (inactive).

What about the GI50 (COLO 205) of the same molecule?
The GI50 was > 100 µM (inactive).

And the GI50 (DU-145)?
The GI50 was > 100 µM (inactive).

What about the GI50 (EKVX) of the same molecule?
The GI50 was > 100 µM (inactive).

And the GI50 (HCT-116)?
The GI50 was > 100 µM (inactive).

And the GI50 (HCT-15)?
Its GI50 is > 100 µM.

What about the GI50 (HL-60) of the same molecule?
The GI50 was > 100 µM (inactive).

And the GI50 (HOP-62)?
The GI50 was > 100 µM (inactive).

What about the GI50 (HOP-92) of the same molecule?
The GI50 was > 100 µM (inactive).

What about the GI50 (HT-29) of the same molecule?
Its GI50 is > 100 µM (inactive).

What about the GI50 (Hs-578T) of the same molecule?
The GI50 was > 100 µM (inactive).

What about the GI50 (IGROV-1) of the same molecule?
Its GI50 is > 100 µM (inactive).

And the GI50 (K562)?
Its GI50 is > 100 µM (inactive).

What about the GI50 (KM12) of the same molecule?
The GI50 was > 100 µM (inactive).

What about the GI50 (LOX IMVI) of the same molecule?
Its GI50 is > 100 µM (inactive).

What about the GI50 (M14) of the same molecule?
The GI50 was > 100 µM (inactive).

And the GI50 (MCF7)?
Its GI50 is > 100 µM (inactive).

And the GI50 (MDA-MB-231)?
The GI50 was > 100 µM (inactive).

What about the GI50 (MDA-MB-435) of the same molecule?
The GI50 was > 100 µM (inactive).

What about the GI50 (MDA-N) of the same molecule?
The GI50 was > 100 µM (inactive).

What about the GI50 (MOLT-4) of the same molecule?
The GI50 was > 100 µM (inactive).

And the GI50 (Malme-3M)?
The GI50 was 54.6 µM (inactive).

What about the GI50 (NCI-H226) of the same molecule?
The GI50 was > 100 µM (inactive).

What about the GI50 (NCI-H23) of the same molecule?
The GI50 was > 100 µM (inactive).

And the GI50 (NCI-H460)?
Its GI50 is > 100 µM (inactive).

And the GI50 (NCI-H522)?
The GI50 was > 100 µM (inactive).

What about the GI50 (NCI/ADR-RES) of the same molecule?
The GI50 was > 100 µM (inactive).

What about the GI50 (OVCAR-3) of the same molecule?
Its GI50 is > 100 µM (inactive).

And the GI50 (OVCAR-4)?
The GI50 was > 100 µM (inactive).

And the GI50 (OVCAR-5)?
Its GI50 is > 100 µM (inactive).

What about the GI50 (OVCAR-8) of the same molecule?
Its GI50 is > 100 µM (inactive).

What about the GI50 (PC-3) of the same molecule?
The GI50 was > 100 µM (inactive).

What about the GI50 (RPMI-8226) of the same molecule?
The GI50 was > 100 µM (inactive).

And the GI50 (RXF 393)?
Its GI50 is > 100 µM (inactive).

And the GI50 (SF-268)?
The GI50 was > 100 µM (inactive).

And the GI50 (SF-295)?
Its GI50 is > 100 µM (inactive).

What about the GI50 (SF-539) of the same molecule?
The GI50 was > 100 µM (inactive).

And the GI50 (SK-MEL-28)?
Its GI50 is > 100 µM (inactive).

What about the GI50 (SK-MEL-2) of the same molecule?
The GI50 was > 100 µM (inactive).

What about the GI50 (SK-MEL-5) of the same molecule?
Its GI50 is > 100 µM (inactive).

What about the GI50 (SK-OV-3) of the same molecule?
The GI50 was > 100 µM (inactive).

And the GI50 (SN12C)?
Its GI50 is > 100 µM (inactive).

What about the GI50 (SNB-19) of the same molecule?
The GI50 was > 100 µM (inactive).

And the GI50 (SNB-75)?
The GI50 was > 100 µM (inactive).

What about the GI50 (SR) of the same molecule?
Its GI50 is > 100 µM (inactive).

And the GI50 (SW-620)?
Its GI50 is > 100 µM (inactive).

And the GI50 (T47D)?
The GI50 was > 100 µM (inactive).

And the GI50 (TK-10)?
The GI50 was > 100 µM (inactive).

And the GI50 (U-251)?
The GI50 was > 100 µM (inactive).

What about the GI50 (UACC-257) of the same molecule?
The GI50 was > 100 µM (inactive).

And the GI50 (UACC-62)?
The GI50 was > 100 µM (inactive).

What about the GI50 (UO-31) of the same molecule?
The GI50 was > 100 µM (inactive).

`CN1CCCN2CCN(C)CCN(CC1)CC2` was tested. Which GI50 (786-0) did it give?
Its GI50 is > 100 µM (inactive).

And the GI50 (A498)?
The GI50 was > 100 µM (inactive).

What about the GI50 (A549) of the same molecule?
Its GI50 is > 100 µM (inactive).

What about the GI50 (ACHN) of the same molecule?
The GI50 was > 100 µM (inactive).

And the GI50 (BT-549)?
Its GI50 is > 100 µM (inactive).

What about the GI50 (CAKI-1) of the same molecule?
The GI50 was > 100 µM (inactive).

And the GI50 (CCRF-CEM)?
Its GI50 is > 100 µM (inactive).

And the GI50 (COLO 205)?
Its GI50 is > 100 µM (inactive).

And the GI50 (DU-145)?
Its GI50 is > 100 µM (inactive).

What about the GI50 (EKVX) of the same molecule?
Its GI50 is > 100 µM (inactive).

What about the GI50 (HCC 2998) of the same molecule?
Its GI50 is > 100 µM (inactive).

What about the GI50 (HCT-116) of the same molecule?
The GI50 was > 100 µM (inactive).

What about the GI50 (HCT-15) of the same molecule?
Its GI50 is > 100 µM.

What about the GI50 (HL-60) of the same molecule?
Its GI50 is > 100 µM (inactive).

And the GI50 (HOP-62)?
The GI50 was > 100 µM (inactive).

What about the GI50 (HOP-92) of the same molecule?
The GI50 was > 100 µM (inactive).

What about the GI50 (HT-29) of the same molecule?
Its GI50 is > 100 µM (inactive).

What about the GI50 (Hs-578T) of the same molecule?
Its GI50 is > 100 µM (inactive).

And the GI50 (IGROV-1)?
The GI50 was > 100 µM (inactive).

What about the GI50 (K562) of the same molecule?
Its GI50 is > 100 µM (inactive).

What about the GI50 (KM12) of the same molecule?
The GI50 was > 100 µM (inactive).

What about the GI50 (LOX IMVI) of the same molecule?
Its GI50 is > 100 µM (inactive).

And the GI50 (M14)?
The GI50 was > 100 µM (inactive).

What about the GI50 (MCF7) of the same molecule?
Its GI50 is > 100 µM (inactive).

And the GI50 (MDA-MB-231)?
Its GI50 is > 100 µM (inactive).

What about the GI50 (MDA-MB-435) of the same molecule?
Its GI50 is > 100 µM (inactive).

What about the GI50 (MDA-N) of the same molecule?
Its GI50 is > 100 µM (inactive).

What about the GI50 (MOLT-4) of the same molecule?
The GI50 was > 100 µM (inactive).

And the GI50 (Malme-3M)?
The GI50 was > 100 µM (inactive).

What about the GI50 (NCI-H23) of the same molecule?
The GI50 was > 100 µM (inactive).

What about the GI50 (NCI-H460) of the same molecule?
Its GI50 is > 100 µM (inactive).

What about the GI50 (NCI-H522) of the same molecule?
Its GI50 is > 100 µM (inactive).

What about the GI50 (NCI/ADR-RES) of the same molecule?
Its GI50 is > 100 µM (inactive).

And the GI50 (OVCAR-3)?
Its GI50 is > 100 µM (inactive).

And the GI50 (OVCAR-4)?
The GI50 was > 100 µM (inactive).

What about the GI50 (OVCAR-5) of the same molecule?
The GI50 was > 100 µM (inactive).

And the GI50 (OVCAR-8)?
The GI50 was > 100 µM (inactive).

And the GI50 (PC-3)?
Its GI50 is > 100 µM (inactive).

What about the GI50 (RPMI-8226) of the same molecule?
The GI50 was > 100 µM (inactive).

And the GI50 (RXF 393)?
Its GI50 is > 100 µM (inactive).

And the GI50 (SF-268)?
Its GI50 is > 100 µM (inactive).

And the GI50 (SF-295)?
The GI50 was > 100 µM (inactive).

What about the GI50 (SF-539) of the same molecule?
The GI50 was 0.0366 µM (active).

What about the GI50 (SK-MEL-28) of the same molecule?
Its GI50 is > 100 µM (inactive).

And the GI50 (SK-MEL-2)?
The GI50 was > 100 µM (inactive).

What about the GI50 (SK-MEL-5) of the same molecule?
The GI50 was > 100 µM (inactive).

What about the GI50 (SK-OV-3) of the same molecule?
The GI50 was > 100 µM (inactive).

What about the GI50 (SN12C) of the same molecule?
Its GI50 is > 100 µM (inactive).

And the GI50 (SNB-19)?
The GI50 was > 100 µM (inactive).

And the GI50 (SNB-75)?
The GI50 was > 100 µM (inactive).

What about the GI50 (SR) of the same molecule?
Its GI50 is > 100 µM (inactive).

What about the GI50 (SW-620) of the same molecule?
The GI50 was > 100 µM (inactive).

What about the GI50 (T47D) of the same molecule?
The GI50 was > 100 µM (inactive).

And the GI50 (TK-10)?
The GI50 was > 100 µM (inactive).

And the GI50 (U-251)?
Its GI50 is > 100 µM (inactive).

And the GI50 (UACC-257)?
Its GI50 is > 100 µM (inactive).

And the GI50 (UACC-62)?
The GI50 was > 100 µM (inactive).

What about the GI50 (UO-31) of the same molecule?
Its GI50 is > 100 µM (inactive).
